Measured values taken from ChEMBL document CHEMBL4619760, “Anti-inflammatory Efficacy of Combined Natural Alkaloid Berberine and S1PR Modulator Fingolimod at Low Doses in Ulcerative Colitis Preclinical Models” (J Nat Prod, 2020).
Activity calls are given as the source filed them.

What was measured:
[1] = (§1) Toxicity in DSS-induced C57BL/6 mouse model of chronic relapsing colitis assessed as induction of abnormalities in kidney at 0.15 mg/kg, po administered once daily for 30 days starting from day 13 post DSS-challenge cotreated with 20 mg/kg berberine by hematoxylin and eosin staining based light microscopic analysis; assay type: organism-based; settings: in vivo, 720 h
Mus musculus [2] = test: Anti-colitis activity against DSS-induced C57BL/6 mouse model of chronic relapsing colitis assessed as reduction in DSS-induced loss of colon crypt and columnar epithelium at 0.3 mg/kg, po administered once daily for 30 days starting from day 13 post DSS-challenge; assay type: functional, organism-based
[3] = (§2) Toxicity in DSS-induced C57BL/6 mouse model of chronic relapsing colitis assessed as induction of abnormalities in lung at 0.3 mg/kg, po administered once daily for 30 days starting from day 13 post DSS-challenge by hematoxylin and eosin staining based light microscopic analysis; assay type: organism-based; settings: in vivo, 720 h
Mus musculus [4] = test: Anti-colitis activity against DSS-induced C57BL/6 mouse model of chronic relapsing colitis assessed as reduction in DSS-induced multiple erosive lesions in colon at 0.3 mg/kg, po administered once daily for 30 days starting from day 13 post DSS-challenge; assay type: functional, organism-based
Mus musculus [5] = test: as §1, with “Anti-colitis activity against” for “Toxicity in”, “reduction in DSS-induced loss” for “induction”, “colon crypt and columnar epithelium” for “abnormalities in kidney”; assay type: functional, organism-based
Mus musculus [6] = test: as §1, with “Anti-colitis activity against” for “Toxicity in”, “reduction” for “induction of abnormalities”, “DSS-induced mononuclear cell infiltration in spleen” for “kidney”; assay type: functional, organism-based
Mus musculus [7] = test: Anti-colitis activity against DSS-induced C57BL/6 mouse model of subchronic relapsing colitis assessed as reduction in colon swelling at 0.3 mg/kg, po administered once daily for 14 days starting from day 5 post DSS-challenge; assay type: functional, organism-based
Mus musculus [8] = test: Anti-colitis activity against DSS-induced C57BL/6 mouse model of chronic relapsing colitis assessed as reduction in stool consistency score at 0.3 mg/kg, po administered once daily for 30 days starting from day 13 post DSS-challenge measured on day 24; assay type: functional, organism-based
THP-1 = test: Antiinflammatory activity in human THP1 cells assessed as reduction in LPS-induced TNFalpha mRNA level at 1 uM incubated for 1 hr followed by LPS challenge and measured after 4 to 6 hrs by q-PCR method; assay type: functional, cell-based
[9] = molecular target: Signal transducer and activator of transcription 3 (Homo sapiens) (UniProt P40763); test: Inhibition of STAT3 activation in human THP1 cells assessed as reduction in LPS-induced phosphorylated STAT3 expression at 0.5 uM cotreated with 0.5 uM berberine incubated for 1 hr followed by LPS challenge and measured after 4 to 6 hrs by Western blot analysis; assay type: cell-based; settings: THP-1
Signal transducer and activator of transcription 3 (Homo sapiens), sequence (P40763 whole entry): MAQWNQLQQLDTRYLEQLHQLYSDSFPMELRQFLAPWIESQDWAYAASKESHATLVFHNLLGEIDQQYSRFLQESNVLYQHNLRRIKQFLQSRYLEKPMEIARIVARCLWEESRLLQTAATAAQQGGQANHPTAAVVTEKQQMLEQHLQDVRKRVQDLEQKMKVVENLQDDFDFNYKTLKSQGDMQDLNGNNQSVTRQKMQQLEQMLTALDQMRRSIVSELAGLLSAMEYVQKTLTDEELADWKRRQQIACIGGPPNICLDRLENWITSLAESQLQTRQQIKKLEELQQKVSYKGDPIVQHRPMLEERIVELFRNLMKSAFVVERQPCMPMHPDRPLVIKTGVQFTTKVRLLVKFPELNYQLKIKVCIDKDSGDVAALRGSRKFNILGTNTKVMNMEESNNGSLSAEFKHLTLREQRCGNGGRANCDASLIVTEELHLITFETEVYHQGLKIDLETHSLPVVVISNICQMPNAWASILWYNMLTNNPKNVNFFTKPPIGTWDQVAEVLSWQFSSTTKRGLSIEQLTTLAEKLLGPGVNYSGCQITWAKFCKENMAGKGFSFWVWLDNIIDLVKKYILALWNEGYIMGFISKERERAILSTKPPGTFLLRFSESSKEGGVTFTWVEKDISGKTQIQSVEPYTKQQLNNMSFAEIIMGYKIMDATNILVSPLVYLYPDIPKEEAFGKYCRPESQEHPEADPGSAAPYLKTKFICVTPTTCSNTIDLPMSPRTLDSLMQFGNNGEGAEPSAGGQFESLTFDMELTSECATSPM

Mus musculus [10] = test: Anti-colitis activity against DSS-induced C57BL/6 mouse model of subchronic relapsing colitis assessed as reduction in stool consistency scores at 0.3 mg/kg, po administered once daily for 14 days starting from day 5 post DSS challenge and measured on day 19; assay type: functional, organism-based
Mus musculus [11] = test: Anti-colitis activity against DSS-induced C57BL/6 mouse model of subchronic relapsing colitis assessed as reduction in stool consistency score at 0.15 mg/kg, po administered once daily for 14 days starting from day 5 post DSS-challenge cotreated with 20 mg/kg berberine and measured after day 12 to day 18; assay type: functional, organism-based
Mus musculus [12] = test: as §2, with “Anti-colitis activity against” for “Toxicity in”, “reduction” for “induction of abnormalities”, “DSS-induced mononuclear cell infiltration in spleen” for “lung”; assay type: functional, organism-based
Mus musculus [13] = test: Antiinflammatory activity against DSS-induced C57BL/6 mouse model of subchronic relapsing colitis assessed as reduction in S1PR1 mRNA level at 0.3 mg/kg, po administered once daily for 14 days starting from day 5 post DSS-challenge by RT-qPCR analysis; assay type: functional, organism-based
Mus musculus [14] = test: Effect on total S1PR1 expression in DSS-induced C57BL/6 mouse model of subchronic relapsing colitis at 0.3 mg/kg, po administered once daily for 14 days starting from day 5 post DSS-challenge by Western blot analysis; assay type: ADME, organism-based; settings: in vivo, 336 h
Mus musculus [15] = test: Anti-colitis activity against DSS-induced C57BL/6 mouse model of chronic relapsing colitis assessed as reduction in disease activity index at 0.3 mg/kg, po administered once daily for 30 days starting from day 13 post DSS-challenge and measured on day 24; assay type: functional, organism-based
Mus musculus [16] = test: Anti-colitis activity against DSS-induced C57BL/6 mouse model of subchronic relapsing colitis assessed as reduction in disease activity index at 0.3 mg/kg, po administered once daily for 14 days starting from day 5 post DSS challenge and measured on day 19; assay type: functional, organism-based

CCCCCCCCc1ccc(CCC(N)(CO)CO)cc1.Cl [FINGOLIMOD HYDROCHLORIDE]
inactive: Activity (Mus musculus [7])
Non-Toxic: Activity [1] | Activity [3] | Activity (Mus musculus [14])
active: Activity (Mus musculus [2]) | Activity (Mus musculus [4]) | Activity (Mus musculus [5]) | Activity (Mus musculus [6]) | Activity (Mus musculus [8]) | Activity (THP-1) | inhibition [9] | Activity (Mus musculus [10]) | Activity (Mus musculus [11]) | Activity (Mus musculus [12]) | Activity (Mus musculus [13]) | Activity (Mus musculus [15]) | Activity (Mus musculus [16])
